# Source: BindingDB's records for doi:10.7270/Q2H70D5W (University of Pittsburgh, 2007)
# Biological target: Gag-Pol polyprotein (Human immunodeficiency virus type 1 group M subtype B (isolate HXB2), UniProt P04585)
# Assay: concentration-response of HIV-1 RNase H blockers – biochemical, probe assessment, dose response (AID 652)
# Settings: pH 8; 23 °C
row,SMILES,IC50
1,"CN(C)c1ccc2c(c1)N=C(c1ccco1)OP2(=S)N1CCOCC1 (configuration not stated) [3-(2-furanyl)-N,N-dimethyl-1-(4-morpholinyl)-1-sulfanylidene-2,4,1-benzoxazaphosphorin-6-amine]",1.66 µM
2,c1ccc2[nH]c(SN3CCOCC3)nc2c1,12.5 µM
3,O=C(NC1CCCCC1)c1sc(=S)n2c1[nH]c(=O)c1ccccc12 [SMR000030293],0.645 µM
4,O=C(CSc1nnnn1-c1ccccc1)Nc1nsc(-c2ccc(Cl)cc2)n1 [MLS000085595],15.7 µM
5,"Cc1cc(C)c2c(=O)n(CC(=O)NCCCN3CCOCC3)sc2n1 [2-(3-keto-4,6-dimethyl-isothiazolo[5,4-b]pyridin-2-yl)-N-(3-morpholinopropyl)acetamide]",9.4 µM
6,"c1ccc(N2CCN(c3nc4cc5c(cc4s3)OCO5)CC2)cc1 [6-(4-phenyl-1-piperazinyl)-[1,3]dioxolo[4,5-f][1,3]benzothiazole]",3.21 µM
7,CCCCCC#CCC#CCC#CCC#CCCCC(=O)O,0.794 µM
8,"CCCCC[C@H](O)C=C[C@H]1C=CC(=O)[C@@H]1C/C=C\CCCC(=O)O [(Z)-7-[(1R,5S)-2-oxidanylidene-5-[(E,3S)-3-oxidanyloct-1-enyl]cyclopent-3-en-1-yl]hept-5-enoic acid]",1.06 µM
9,COC(=O)c1ccc2c(=O)n(Cc3ccco3)c(SCC(=O)Nc3ccccc3Cl)nc2c1 [2-[[2-(2-chloroanilino)-2-keto-ethyl]thio]-3-(2-furfuryl)-4-keto-quinazoline-7-carboxylic acid methyl ester],4.65 µM
10,"c1cncc(-c2nn3c(Cn4cnc5ccccc54)nnc3s2)c1 [1-{[6-(3-pyridinyl)[1,2,4]triazolo[3,4-b][1,3,4]thiadiazol-3-yl]methyl}-1H-benzimidazole]",0.621 µM
11,"Cc1ccc(-n2c(N)c(C(N)=O)sc2=S)cc1 [4-amino-3-(4-methylphenyl)-2-sulfanylidene-1,3-thiazole-5-carboxamide]",2.58 µM
12,"COC(=O)c1sc(N2C(=O)c3oc4ccccc4c(=O)c3C2c2cccs2)nc1C (configuration not stated) [2-(3,9-dioxo-1-thiophen-2-yl-1H-[1]benzopyrano[2,3-c]pyrrol-2-yl)-4-methyl-5-thiazolecarboxylic acid methyl ester]",5.25 µM
13,O=C(CCN1C(=O)c2ccccc2C1=O)Nc1ccc(-c2nc3ccccc3o2)cc1 [MLS000051238],5.8 µM
14,CC1=C(SCCC#N)S/C(=C2\SC(C)=C(SCCC#N)S2)S1 [SMR000011057],2.8 µM
15,CCCCC(CC)Cn1c2nc3ccccc3nc2c2c(=N)oc(C)nc21 (configuration not stated) [MLS000098038],2.33 µM
16,"COc1ccccc1-c1nnc2n1N=C(c1ccc(O)c(O)c1)CS2 [(4E)-4-[3-(2-methoxyphenyl)-5H-[1,2,4]triazolo[3,4-b][1,3,4]thiadiazin-6-ylidene]-2-oxidanyl-cyclohexa-2,5-dien-1-one]",1 µM
17,CN(C)c1cccc(C(=O)Nc2cccc(F)c2)c1 [3-(dimethylamino)-N-(3-fluorophenyl)benzamide],12.2 µM
18,"O=C(O)c1cc(S(=O)(=O)Nc2ccc3oc(=O)sc3c2)ccc1O [2-hydroxy-5-[(2-keto-1,3-benzoxathiol-5-yl)sulfamoyl]benzoic acid]",7.39 µM
19,"Nc1c(C(=O)N2CCOCC2)sc(=S)n1-c1ccccc1 [(4-amino-3-phenyl-2-sulfanylidene-1,3-thiazol-5-yl)-morpholin-4-ylmethanone]",4.97 µM
20,Cc1cc(C)n2c(S)nnc2n1,8.1 µM
21,"CC1CCc2c(sc(NC(=O)c3ccc(Cn4cc(Br)cn4)o3)c2C(N)=O)C1 (configuration not stated) [2-({5-[(4-bromo-1H-pyrazol-1-yl)methyl]-2-furoyl}amino)-6-methyl-4,5,6,7-tetrahydro-1-benzothiophene-3-carboxamide]",3.19 µM
22,CCOC(=O)CSc1nc2cc(C(=O)NCc3ccco3)ccc2c(=O)n1-c1ccc(F)cc1 [2-[[3-(4-fluorophenyl)-7-(2-furfurylcarbamoyl)-4-keto-quinazolin-2-yl]thio]acetic acid ethyl ester],13.1 µM
23,"Cc1ccc(/C=C/C2=Cc3c(sc(NC(=O)CSc4nnc(N)[nH]4)c3C#N)C(C)(C)C2)o1 [2-[(5-azanyl-1H-1,2,4-triazol-3-yl)sulfanyl]-N-[3-cyano-7,7-dimethyl-5-[(E)-2-(5-methylfuran-2-yl)ethenyl]-6H-1-benzothiophen-2-yl]ethanamide]",0.9 µM
24,CC(C)c1ccc2oc(-c3ccc(NC(=O)c4nnc[nH]4)cc3)nc2c1,5.64 µM
25,"Cc1cc(NC(=O)CSc2ccc(-c3nc4cc(C)c(C)cc4[nH]3)cn2)no1 [2-[5-(5,6-Dimethyl-1H-benzoimidazol-2-yl)-pyridin-2-ylsulfanyl]-N-(5-methyl-isoxazol-3-yl)-acetamide]",16.7 µM
26,"C=CCn1c(N)c(C(=O)NCCC2=CCCCC2)sc1=S [3-allyl-4-amino-N-(2-cyclohex-1-en-1-ylethyl)-2-thioxo-2,3-dihydro-1,3-thiazole-5-carboxamide]",3.82 µM

row,SMILES,IC50
1,"Clc1ccccc1-c1nn2c(-c3ccncc3)nnc2s1 [6-(2-chlorophenyl)-3-(4-pyridinyl)[1,2,4]triazolo[3,4-b][1,3,4]thiadiazole]",2.7 µM
2,"O=C(Cn1c(=O)oc2cc(S(=O)(=O)N3CCCC3)ccc21)NC1CCCc2ccccc21 (configuration not stated) [2-(2-keto-6-pyrrolidinosulfonyl-1,3-benzoxazol-3-yl)-N-tetralin-1-yl-acetamide]",19.8 µM
3,COc1ccccc1/N=c1\oc2c(OC)cccc2cc1C(=O)NCc1ccco1 [8-Methoxy-2-[(Z)-2-methoxy-phenylimino]-2H-chromene-3-carboxylic acid (furan-2-ylmethyl)-amide],3.13 µM
4,O=S(=O)(c1ccc(S(=O)(=O)N2CCN(C/C=C/c3ccccc3)CC2)cc1)N1CCCC1 [1-[(E)-3-phenylprop-2-enyl]-4-(4-pyrrolidin-1-ylsulfonylphenyl)sulfonyl-piperazine],12.2 µM
5,"COC(=O)c1ccc2c(c1)N(Cc1nc(-c3ccc(Cl)cc3)oc1C)C(=O)C1CCCN21 (configuration not stated) [5-[[2-(4-chlorophenyl)-5-methyl-4-oxazolyl]methyl]-4-oxo-1,2,3,3a-tetrahydropyrrolo[1,2-a]quinoxaline-7-carboxylic acid methyl ester]",2.86 µM
6,"COc1ccc(N2CCN(Cc3cc(=O)oc4cc5c(cc34)CCCC5)CC2)cc1 [4-[[4-(4-methoxyphenyl)-1-piperazinyl]methyl]-6,7,8,9-tetrahydrobenzo[g][1]benzopyran-2-one]",4.35 µM
7,"Cc1nc(-c2cccc(S(=O)(=O)N3CCOCC3)c2)cs1 [4-[3-(2-methyl-1,3-thiazol-4-yl)phenyl]sulfonylmorpholine]",5.96 µM
8,COC(=O)N(c1ccc(OC)cc1)P1(=S)OCCC(C)O1 (configuration not stated) [MLS000043492],1.02 µM
9,"CCN(Cc1ccccc1)S(=O)(=O)c1ccc(C(=O)Nc2nnc(-c3ccccc3OC)o2)cc1 [4-[benzyl(ethyl)sulfamoyl]-N-[5-(2-methoxyphenyl)-1,3,4-oxadiazol-2-yl]benzamide]",8.96 µM
10,"CCOc1ccccc1N1CSC2=C(C#N)C(c3c(OC)ccc4ccccc34)CC(=O)N2C1 (configuration not stated) [3-(2-ethoxyphenyl)-8-(2-methoxy-1-naphthalenyl)-6-oxo-2,4,7,8-tetrahydropyrido[2,1-b][1,3,5]thiadiazine-9-carbonitrile]",2.18 µM
11,O=C(CSc1nc2sc3c(c2c(=O)n1-c1ccccc1)CCCC3)NCc1ccco1 [MLS000115858],17.2 µM
12,COc1ccc(-n2c(SCC(=O)N3CCCC3)nc3c([nH]c4ccccc43)c2=O)cc1 [SMR000018494],16.6 µM
13,"O=c1c2ccccc2sn1-c1cc(S(=O)(=O)N2CCOCC2)ccc1N1CCOCC1 [2-(2-morpholin-4-yl-5-morpholin-4-ylsulfonyl-phenyl)-1,2-benzothiazol-3-one]",0.579 µM
14,"CN(C)c1ccc(NC=C2C(=O)NC(=O)N(CCC3=CCCCC3)C2=O)cc1 [(5Z)-1-[2-(cyclohexen-1-yl)ethyl]-5-[[[4-(dimethylamino)phenyl]amino]methylidene]-1,3-diazinane-2,4,6-trione]",3.8 µM
15,"CCOc1cc(C2C(C#N)C(=N)SC(=N)C2C#N)ccc1OCCN1CCOCC1 (configuration not stated) [2,6-bis(azanyl)-4-[3-ethoxy-4-(2-morpholin-4-ylethoxy)phenyl]-4H-thiopyran-3,5-dicarbonitrile]",31.5 µM
16,COC(=O)c1cccc(N2C(=O)C(Cl)=C(N3CCOCC3)C2=O)c1 [SMR000014938],> 50 µM
17,CCOC(=O)N(c1ccccc1)P1(=S)OCCO1 [MLS000090301],3.25 µM
18,Cc1sc(NC(=O)c2oc3ccccc3c2C)c(C#N)c1C [MLS000065828],10.8 µM
19,"Cc1cc(C(=O)CSc2nnc(-c3ccc(OC(F)F)cc3)o2)c(C)n1Cc1cccs1 [2-[[5-[4-(difluoromethoxy)phenyl]-1,3,4-oxadiazol-2-yl]sulfanyl]-1-[2,5-dimethyl-1-(thiophen-2-ylmethyl)pyrrol-3-yl]ethanone]",1.88 µM
20,"COc1cc(C2CC(=O)N3CN(c4ccccc4C)CSC3=C2C#N)cc(OC)c1OC (configuration not stated) [3-(2-methylphenyl)-6-oxidanylidene-8-(3,4,5-trimethoxyphenyl)-2,4,7,8-tetrahydropyrido[2,1-b][1,3,5]thiadiazine-9-carbonitrile]",4.1 µM
21,"COc1cc(-c2nn3c(Cc4ccccc4)nnc3s2)cc(OC)c1OC [3-(phenylmethyl)-6-(3,4,5-trimethoxyphenyl)-[1,2,4]triazolo[3,4-b][1,3,4]thiadiazole]",4.78 µM
22,COc1ccc(S(=O)(=O)Nc2ccc(O)c3ccccc23)cc1 [4-methoxy-N-(4-oxidanylnaphthalen-1-yl)benzenesulfonamide],4.07 µM
23,"O=C(c1ccc2c3c(cccc13)C(=O)N(O)C2=O)N1CCCCC1 [2-hydroxy-6-(piperidine-1-carbonyl)benzo[de]isoquinoline-1,3-dione]",4.19 µM
24,"CCCc1nnc(NC(=O)CN2C(=O)c3ccccc3S2(=O)=O)s1 [2-(1,1-dioxido-3-oxo-1,2-benzisothiazol-2(3H)-yl)-N-(5-propyl-1,3,4-thiadiazol-2-yl)acetamide]",3.23 µM
25,"Cc1ccc(-n2c(N)c(C(=O)N3CCCCC3)sc2=S)cc1 [4-amino-3-(4-methylphenyl)-5-(1-piperidinylcarbonyl)-1,3-thiazole-2(3H)-thione]",2.3 µM
26,"Nc1c(C(=O)N2CCCCC2)sc(=S)n1-c1ccccc1 [(4-amino-3-phenyl-2-sulfanylidene-1,3-thiazol-5-yl)-piperidin-1-ylmethanone]",1.85 µM
